Source: ChEMBL document CHEMBL1127234, “Acceptor analogues as potential inhibitors of bovine -1,4-galactosyl transferase” (Bioorg Med Chem Lett, 1994)

Experiments:
[1] = molecular target: T1, Beta-1,4-galactosyltransferase 1 (Bos taurus) (UniProt P08037); test: Inhibitory activity against bovine Beta-1,4-galactosyltransferase at 100 uM concentration; ND means Not detectable
T1 sequence (whole entry): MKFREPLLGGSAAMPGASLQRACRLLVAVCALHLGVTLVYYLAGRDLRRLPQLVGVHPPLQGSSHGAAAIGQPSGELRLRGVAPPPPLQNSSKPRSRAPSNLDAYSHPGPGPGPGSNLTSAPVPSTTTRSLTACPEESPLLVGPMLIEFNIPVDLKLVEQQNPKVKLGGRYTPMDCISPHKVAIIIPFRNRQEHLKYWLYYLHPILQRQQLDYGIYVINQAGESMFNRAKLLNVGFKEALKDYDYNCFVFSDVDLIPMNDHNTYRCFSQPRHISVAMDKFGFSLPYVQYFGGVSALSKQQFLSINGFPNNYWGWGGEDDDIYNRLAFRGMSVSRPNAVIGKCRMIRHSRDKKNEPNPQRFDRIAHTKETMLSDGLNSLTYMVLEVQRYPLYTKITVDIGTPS

[2] = molecular target: T1, Beta-1,4-galactosyltransferase 1 (Bos taurus); test: (§1) Inhibitory activity against bovine Beta-1,4-galactosyltransferase at 100 uM concentration
[3] = molecular target: T2, Beta-1,4-galactosyltransferase 1 (Bos taurus, UniProt P08037); test: as §1
T2 sequence (P08037 whole entry): T1 sequence (whole entry)

SMILES | Rate [1] | Rate [2] | Ki [3]
CC(=O)N[C@H]1[C@H](OCc2ccccc2)O[C@H](CO)[C@@H](N=[N+]=[N-])[C@@H]1O | Not detectable |  | 
CC(=O)N[C@H]1[C@H](OCc2ccccc2)O[C@H](CO)[C@@H](NC(C)=O)[C@@H]1O | Not detectable | 2% | 
CC(=O)N[C@H]1[C@H](O)[C@@H](N=[N+]=[N-])[C@H](OCc2ccccc2)O[C@@H]1CO |  | 27% | 

The next lines start with the values.

Rate [1] | Rate [2] | Ki [3] | SMILES
 | 2% | 850 µM | CC(=O)N[C@H]1[C@H](OCc2ccccc2)O[C@H](CO)[C@@H](N)[C@@H]1O
 | 100% |  | CC(=O)N[C@H]1[C@H](OCc2ccccc2)O[C@H](CO)[C@@H](O)[C@@H]1O
 | 4% |  | CC(=O)N[C@H]1[C@H](O)[C@@H](N)[C@H](OCc2ccccc2)O[C@@H]1CO
